Five compounds from patent US20250051578A1, “RHODAMINE-METHYLENE BLUE DERIVATIVE FLUORESCENT PROBE AND PREPARATION METHOD AND APPLICATION THEREOF” (Henan Polytechnic University, priority 2023, published 2025) can be followed below.

Entries after “also recorded” stand apart in the source; their conditions may differ.

The assay deals with Raw246.7 cells. The experiment in a line: Dual-channel confocal fluorescence imaging of ClO^− and ATP in cells. It is filed as cell-based. Particulars: for fluorescence of the NIR channel (ClO^− level) versus control group / fluorescence of the yellow channel (ATP level) versus control group: Raw246.7 cells incubated with the substance 1 h, then fluorescent probe 1×10^−5 mol/L 30 min. Here is the method: After Raw246.7 cells are incubated with relevant steps, fluorescence imaging is performed by an Olympus FV500-IX70 laser confocal microscope, and results of the fluorescence imaging are shown in FIG. 6. Control group (Control): the Raw246.7 cells are incubated with the fluorescent probe (1×10^−5 mol/L) for 30 minutes (min). Oligomycin A (Omy A) group: the Raw246.7 cells are incubated with Omy A (2×10^−5 mol/L) for 1 h and then incubated with the fluorescent probe (1×10^−5 mol/L) for 30 min. Omy A+ATP group: the Raw246.7 cells are incubated with Omy A (2×10^−5 mol/L) for 1 h to obtain incubated cells, the incubated cells are incubated with the ATP (1×10^−3 mol/L) for 1 h and then incubated with the fluorescent probe (1×10^−5 mol/L) for 30 min. N-acetylcysteine (NAC) group: the Raw246.7 cells are incubated with NAC (5×10^−4 mol/L) for 1 h and then incubated with the fluorescent probe (1×10^−5 mol/L) for 30 min. NAC+ClO^− group: the Raw246.7 cells are incubated with NAC (5×10^−4 mol/L) for 1 h to obtain incubated cells, the incubated cells are incubated with ClO^− (2×10^−4 mol/L) for 1 h and then incubated with the fluorescent probe (1×10^−5 mol/L) for 30 min.
After the Raw246.7 cells are incubated with relevant steps, the fluorescence imaging is performed by the Olympus FV500-IX70 laser confocal microscope, and results of the fluorescence imaging are shown in FIG. 7. Control group (Control): the Raw246.7 cells are incubated with the fluorescent probe (1×10^−5 mol/L) for 30 min, and a concentration of glucose (Glu) in a culture media is 5.5×10^−3 mol/L. Lipopolysaccharide (LPS) group: the Raw246.7 cells are incubated with LPS ([…]) for 1 h and then incubated with the fluorescent probe (1×10^−5 mol/L) for 30 min. No Glu group: the Raw246.7 cells are incubated with the fluorescent probe (1×10^−5 mol/L) for 30 min, and no Glu is added to the culture media. High Glu group: the Raw246.7 cells are incubated with the fluorescent probe (1×10^−5 mol/L) for 30 min, and the concentration of Glu in the culture media is 2.5×10^−2 mol/L. Acetaminophen (C8H9NO2, APAP) group: the Raw246.7 cells are incubated with […] for 1 h and then incubated with the fluorescent probe (1×10^−5 mol/L) for 30 min.

`CCN(CC)c1ccc2c(c1)Oc1cc(N(CC)CC)ccc1C21c2ccccc2C(=O)N1CCN1CCN(C(=O)N2c3ccc(N(C)C)cc3Sc3cc(N(C)C)ccc32)CC1`: the “detection of ClO^− in cells by the probe” value (Raw246.7 cells, probe 1×10^−5 mol/L 30 min, NIR channel, listed as fluorescent probe) is recorded as “can detect exogenous ClO^− in cells; also recorded: can detect endogenous ClO^−”. For the same compound, the “detection of ATP in cells by the probe” value (Raw246.7 cells, probe 1×10^−5 mol/L 30 min, yellow channel, listed as fluorescent probe) is on record as “can detect exogenous ATP in cells; also recorded: can detect endogenous ATP”.
As to `CC(=O)Nc1ccc(O)cc1` [APAP, Acetaminophen], the “fluorescence of the NIR channel (ClO^− level) versus control group” value is on record as “significantly enhanced” and the “fluorescence of the yellow channel (ATP level) versus control group” value is listed as “almost non-fluorescent”.
In the same order, the values of `CC(=O)N[C@@H](CS)C(=O)O` [NAC, N-acetylcysteine] are “significantly weakened” and “significantly enhanced”.
Taken in the same sequence, the figures for `CC[C@@H]1/C=C/C=C/C[C@H](C)[C@H](O)[C@](C)(O)C(=O)[C@H](C)[C@@H](O)[C@H](C)C(=O)[C@H](C)[C@@H](O)[C@H](C)/C=C/C(=O)O[C@H]2[C@@H](C)[C@@H](CC1)O[C@@]1(CC[C@@H](C)[C@@H](C[C@H](C)O)O1)[C@@H]2C` [Omy A, Oligomycin A] were “significantly enhanced” and “significantly weakened”.
Taken in the same sequence, the figures for Lipopolysaccharide [LPS] were “significantly enhanced” and “significantly weakened”.
